Format in all cases: cell-based
The subject of experiment [1] is IL-8 secreted from A549 cells. The experiment can be described thus: IL-8 secretion from TNFα-treated A549 cells (ELISA). As to conditions: for IL-8 secretion: at the concentration and ratio found in 10 μg/ml FCBD:std. As to the method:
(§1) Cell cultures—The lung cancer cell line A549 (ATCC® CCL-185™) was cultured in DMEM (01-055-1A, Biological Industries, Israel) growth media supplemented with 10% FBS (04-127-1A, Biological Industries, Israel), 1% […], 1% pen-strep and plasmocin. Macrophage cell line KG1 (ATCC® CCL-246™) was cultured in IMDM (01-058-1A; Biological Industries, Israel) containing 20% FBS and 1% pen-strep and plasmocin. IMDM media supplemented with 10 ng/mL PMA, 5% FBS, 1% pen-strep and plasmocin was used as stimulating environment for the differentiation of KG1 cells. Differentiated cells with typical morphology were attached to the plate surface within 1-2 days of initiation^39.
(§2) Determination of IL levels and cell viability—IL-6 and IL-8 levels were determined as described previously^40 with the following modifications: A549 cells were plated at 5×10^4 cells per well in DMEM complete media (400 μL) in a 24-well cell culture plate. Cells were allowed to attach and incubated with complete DMEM at 37° C. in a humidified atmosphere containing 5% CO2-95% air. Following overnight incubation, cells were treated with 300 ng/mL TNFα with or without plant extract or fraction/compounds. IL-6 and IL-8 secretion levels were analyzed after 4 hours of incubation. Supernatant samples were taken and tested using IL-6 and IL-8 ELISA kits (DY206 and DY208 respectively, R&D Systems, Minneapolis, Minn., USA). Dexamethasone was used as a positive control. For cell viability, an Alamar Blue (resazurin) assay was performed on each well as described previously^40. For dose response assays, data points were connected by non-linear regression lines of the sigmoidal dose-response relation. GraphPad Prism (GraphPad Software Inc., San Diego, USA) was employed to produce dose-response curves and IC50 doses were calculated using nonlinear regression analysis.
Background: In an ELISA, binding on a coated surface is turned into a signal by an enzyme label.

In experiment [2] the test system is IL-6 secreted from A549 cells. The experiment can be described thus: IL-6 secretion from TNFα-treated A549 cells (ELISA). As to conditions: for IL-6 secretion: at the concentration and ratio found in 10 μg/ml FCBD:std. As to the method:
as §1, §2

Experiment [3] deals with CD36. The experiment can be described thus: qPCR of CD36 mRNA in PMA-treated KG1 cells. Conditions: FCBD and FCBD:std 7 μg/mL, Palmitic acid 150 μM, versus vehicle control. As to the method:
as §1
(§3) Quantitative real-time (qRT) PCR—qRT PCR was effected as described^38. Briefly, cells were seeded in a 6-well plate at a concentration of 1.5×10^6 cells in 3 mL per well. Following 24 hours incubation, cells were treated with extract/fraction/compounds for 6 hours. Cells were harvested and RNA was extracted using TRI reagent (T9424, Sigma Aldrich, USA). RNA was reverse-transcribed in a total volume of 20 μL (PB30.11-10; qPCRBIO), according to manufacturer's protocol. PCR was performed in triplicate using qPCR SyGreen Blue Mix (PB20.16-20, qPCRBIO) and a StepOnePlus system (Applied Biosystems). […]
Background: Real-time PCR tracks product formation cycle by cycle.

Experiment [4] concerns IL-6. Nature of the experiment: qPCR of IL-6 mRNA in PMA-treated KG1 cells (differentiated macrophages). Conditions: 6 hours, FCBD and FCBD:std 7 μg/mL, Dex 8 μg/mL, relative to control. As to the method: as §1, §3
The subject of experiment [5] is IL-8 secreted from KG1 cells. Nature of the experiment: IL-8 secretion from KG1 cells treated with TNFα (ELISA). As to conditions: 300 ng/mL TNFα, 4 hours, FCBD or FCBD:std 10 μg/mL or indicated concentrations, Dex 4 μg/mL. On the procedure: as §1
Determination of IL levels and cell viability—IL-6 and IL-8 levels were determined as described previously^40 with the following modifications: A549 cells were plated at 5×10^4 cells per well in DMEM complete media (400 μL) in a 24-well cell culture plate. Cells were allowed to attach and incubated with complete DMEM at 37° C. in a humidified atmosphere containing 5% CO2-95% air. […] IL-6 and IL-8 secretion levels were analyzed after 4 hours of incubation. […] GraphPad Prism (GraphPad Software Inc., San Diego, USA) was employed to produce dose-response curves and IC50 doses were calculated using nonlinear regression analysis.

Experiment [6] has as its system CCL2. Nature of the experiment: qPCR of CCL2 mRNA in PMA-treated KG1 cells (differentiated macrophages). Conditions: 6 hours, FCBD and FCBD:std 7 μg/mL, Dex 8 μg/mL, relative to control. As to the method:
as §1, §3

The subject of experiment [7] is IL-8. The experiment can be described thus: qPCR of IL-8 mRNA in PMA-treated KG1 cells (differentiated macrophages). As to conditions: 6 hours, FCBD and FCBD:std 7 μg/mL, Dex 8 μg/mL, relative to control. As to the method: as §1, §3
Setting [8] is: higher or lower concentrations of CBD than 3.0 μg/mL.

Consider `Cc1c(C(=O)NN2CCCCC2)nn(-c2ccc(Cl)cc2Cl)c1-c1ccc(I)cc1` [CB1 IA], for which the “IL-8 levels, inverse agonist alone” value in experiment [1] (treatment with IA only) is listed as “reduction”. In experiment [2] (treatment with IA only), the “IL-6 levels, inverse agonist alone” value is on record as “reduction”.

`C=C(C)[C@@H]1CCC(C)=C[C@H]1c1c(O)cc(CCCCC)cc1O` [CBD, cannabidiol]: the “IL-8 levels, anti-inflammatory activity” value in experiment [1] (CBD alone at 3.0 μg/mL) was “showed anti-inflammatory activity”. The IL-8 secretion entry in experiment [1] is given as “did not lead to such a reduction”. For the same compound, in experiment [1] (setting [8]), the “activity in reducing IL-8 levels” value is listed as “lower and/or non-significant activity”. Besides, the “IL-6 levels, anti-inflammatory activity” value in experiment [2] (CBD alone at 3.0 μg/mL) was “showed anti-inflammatory activity”. Besides, the IL-6 secretion result in experiment [2] is listed as “did not lead to such a reduction”. In experiment [2] (setting [8]), the “activity in reducing IL-6 levels” value is “lower and/or non-significant activity”.

Regarding `CCCCCCCCCCCCCCCC(=O)O` [PA, Palmitic acid], the “mRNA expression of CD36” value in experiment [3] is “reduced”.

As to `C[C@@H]1C[C@H]2[C@@H]3CCC4=CC(=O)C=C[C@]4(C)[C@@]3(F)[C@@H](O)C[C@]2(C)[C@@]1(O)C(=O)CO` [dexamethasone, Dexamethasone], in experiment [4], the “increase of IL-6 mRNA expression level” value is reported as “no effect”. Besides, the “IL-8 secretion from KG1 cells” value in experiment [5] is reported as “no effect”. Also, the “increase of CCL2 mRNA expression level” value in experiment [6] is “no effect”. The “increase of IL-8 mRNA expression level” value in experiment [7] was “no effect”.

For `CCCCCc1cc(O)c(C/C=C(\C)CCC=C(C)C)c(O)c1` [CBG, cannabigerol], in experiment [1], the IL-8 secretion entry is given as “did not lead to such a reduction”. Besides, the IL-6 secretion result in experiment [2] is “did not lead to such a reduction”.

As for `CCCc1cc(O)c2c(c1)OC(C)(C)[C@@H]1CCC(C)=C[C@@H]21` [THCV, tetrahydrocannabivarin], the IL-8 secretion entry in experiment [1] was “did not lead to such a reduction”. Moreover, the IL-6 secretion result in experiment [2] is given as “did not lead to such a reduction”.

Source of the values: patent US20230277564A1, “CANNABINOIDAL COMPOSITIONS FOR THE TREATMENT OF DISEASE” (The State of Israel, Ministry of Agriculture & Rural …, priority 2020, published 2023).
